From ChEMBL document CHEMBL4303121, “Human organs-on-chips as tools for repurposing approved drugs as potential influenza and COVID19 therapeutics in viral pandemics” (2020)

Experiments:
SARS-CoV-2 [1] = assay: Inhibition of SARS-CoV-2 pseudoparticle entry in Huh-7 cells, assessed by luciferase assay after 72 hrs; format: functional, Homo sapiens; details: Severe acute respiratory syndrome coronavirus 2, Huh-7, 72 h; for inhibition at 1 µM: CONC 1 uM; for inhibition at 5 µM: CONC 5 uM
[2] = Assessment of cytotoxicity in Huh-7 cells, assessed as % inhibition of cell viability by Celltiter-Glo assay after 48 hrs; format: toxicity, cell-based; details: human, read-out: Inhibition; for cytotoxicity at 48 h, 1 µM: conc 1 uM; for cytotoxicity at 48 h, 5 µM: conc 5 uM
SARS-CoV-2 [3] = assay: Inhibition of SARS-CoV-2 pseudoparticle entry in human lung Airway Chip at reported drug Cmax, assessed by qRT-PCR after 48 hrs; format: functional; details: Severe acute respiratory syndrome coronavirus 2, Lung epithelium

| Structure (SMILES) | inhibition at 1 µM (SARS-CoV-2 [1]) [%] | inhibition at 5 µM (SARS-CoV-2 [1]) [%] | cytotoxicity at 48 h, 1 µM [2] [%] | cytotoxicity at 48 h, 5 µM [2] [%] | inhibition at 2.98 µM (SARS-CoV-2 [3]; CONC 2.98 uM) [%] | inhibition at 1.24 µM (SARS-CoV-2 [3]; CONC 1.24 uM) [%] | inhibition at 1.91 µM (SARS-CoV-2 [3]; CONC 1.91 uM) [%] | inhibition at 0.81 µM (SARS-CoV-2 [3]; CONC 0.81 uM) [%] | inhibition at 20.04 µM (SARS-CoV-2 [3]; CONC 20.04 uM) [%] | inhibition at 3.89 µM (SARS-CoV-2 [3]; CONC 3.89 uM) [%] | inhibition at 0.83 µM (SARS-CoV-2 [3]; CONC 0.83 uM) [%] |
| --- | --- | --- | --- | --- | --- | --- | --- | --- | --- | --- | --- |
| CN(C)CCOc1ccc(/C(=C(/CCCl)c2ccccc2)c2ccccc2)cc1 [TOREMIFENE] | 30 | 65 | 1 | 10 | 50 |  |  |  |  |  |  |
| CCN(CC)Cc1cc(Nc2ccnc3cc(Cl)ccc23)ccc1O [AMODIAQUINE] | 70 | 90 | 1 | -5 |  | 60 |  |  |  |  |  |
| CCN(CC)CCCC(C)Nc1ccnc2cc(Cl)ccc12 (stereo not drawn) [CHLOROQUINE] | 50 | 85 | 2 | 3 |  |  | 10 |  |  |  |  |
| COc1ccc(CCN(C)CCCC(C#N)(c2ccc(OC)c(OC)c2)C(C)C)cc1OC (stereo not drawn) | 15 | 50 |  |  |  |  |  | 10 |  |  |  |
| CCCCc1oc2ccccc2c1C(=O)c1cc(I)c(OCCN(CC)CC)c(I)c1 [AMIODARONE] | 55 | 70 | 1 | 2 |  |  |  |  | 20 |  |  |
| CCOC(=O)c1c(CSc2ccccc2)n(C)c2cc(Br)c(O)c(CN(C)C)c12 [UMIFENOVIR] | 5 | 75 | 1 | 10 |  |  |  |  |  | 20 |  |
| CCN(CC)CCOc1ccc(C(=C(Cl)c2ccccc2)c2ccccc2)cc1 [CLOMIPHENE] | 60 | 80 | 2 | 12 |  |  |  |  |  |  | 30 |
